This passage reports IC50 results from patent US20240109917A1 (ACTELION PHARMACEUTICALS LTD, priority 2020, published 2024).

The structures appear in SMILES notation. pIC50: −log10 of the molar value.

VEGFR2, unphosphorylated, sequence (P35968 20-1356): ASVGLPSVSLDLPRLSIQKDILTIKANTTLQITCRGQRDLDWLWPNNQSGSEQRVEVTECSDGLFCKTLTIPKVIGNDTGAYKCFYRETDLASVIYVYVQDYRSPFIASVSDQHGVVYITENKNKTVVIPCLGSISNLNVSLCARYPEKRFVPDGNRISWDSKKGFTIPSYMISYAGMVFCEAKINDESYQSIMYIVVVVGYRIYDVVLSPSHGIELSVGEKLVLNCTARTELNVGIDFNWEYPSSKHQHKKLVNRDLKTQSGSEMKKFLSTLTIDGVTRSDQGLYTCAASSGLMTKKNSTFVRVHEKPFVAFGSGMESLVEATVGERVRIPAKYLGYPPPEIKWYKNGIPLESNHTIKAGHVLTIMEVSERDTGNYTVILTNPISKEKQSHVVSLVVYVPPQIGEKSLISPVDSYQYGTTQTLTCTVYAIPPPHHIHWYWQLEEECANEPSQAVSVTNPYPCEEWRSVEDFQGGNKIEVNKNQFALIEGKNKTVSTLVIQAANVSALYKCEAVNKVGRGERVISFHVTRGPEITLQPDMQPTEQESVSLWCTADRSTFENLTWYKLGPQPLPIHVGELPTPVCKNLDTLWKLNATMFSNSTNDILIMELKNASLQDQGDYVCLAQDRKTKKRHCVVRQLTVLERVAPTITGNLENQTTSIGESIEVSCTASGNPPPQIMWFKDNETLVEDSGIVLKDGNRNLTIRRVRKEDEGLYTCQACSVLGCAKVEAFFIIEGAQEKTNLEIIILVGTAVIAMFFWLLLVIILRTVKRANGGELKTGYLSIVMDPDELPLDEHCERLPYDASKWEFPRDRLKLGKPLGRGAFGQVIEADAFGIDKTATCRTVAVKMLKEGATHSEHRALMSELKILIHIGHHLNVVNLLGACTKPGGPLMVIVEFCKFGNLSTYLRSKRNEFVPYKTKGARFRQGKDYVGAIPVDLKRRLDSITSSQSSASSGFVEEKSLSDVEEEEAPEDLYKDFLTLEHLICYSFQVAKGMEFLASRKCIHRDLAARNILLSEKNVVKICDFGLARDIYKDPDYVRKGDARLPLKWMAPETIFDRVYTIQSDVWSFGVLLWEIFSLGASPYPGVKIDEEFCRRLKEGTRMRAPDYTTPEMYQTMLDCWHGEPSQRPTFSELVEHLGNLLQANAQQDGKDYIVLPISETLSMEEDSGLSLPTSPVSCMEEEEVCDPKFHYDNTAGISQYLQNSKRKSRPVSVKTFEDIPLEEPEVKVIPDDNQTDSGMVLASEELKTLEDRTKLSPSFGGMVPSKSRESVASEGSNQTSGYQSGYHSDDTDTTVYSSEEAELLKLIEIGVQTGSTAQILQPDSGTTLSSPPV

The assay concerns the target VEGFR2, unphosphorylated (Homo sapiens (Human), UniProt P35968). Description: VEGFR ADP GLO Assay. The assay is classed as biochemical. On the technique in general: In ADP-Glo the light output rises with the ADP produced.
The pIC50 is the negative decadic logarithm of the IC50, by convention in mol/L. Read a high pIC50 as a low IC50. Compound `COCCn1cc(-c2cn3ncc(C(=O)Nc4cc(NC(=O)C[C@H]5CCCN5C(C)C)cnc4C)c3s2)cn1` [Example 485, (R)—N-(5-(2-(1-isopropylpyrrolidin-2-yl)acetamido)-2-methylpyridin-3-yl)-2-(1-(2-methoxyethyl)-1H-pyrazol-4-yl)pyrazolo[5,1-b]thiazole-7-carboxamide] showed a pIC50 of less than 5.12. Next, `COCCn1cc(-c2cn3ncc(C(=O)Nc4cc(NC(=O)C[C@H]5CCN(C(C)C)C5)cnc4C)c3s2)cn1` [Example 486, (R)—N-(5-(2-(1-isopropylpyrrolidin-3-yl)acetamido)-2-methylpyridin-3-yl)-2-(1-(2-methoxyethyl)-1H-pyrazol-4-yl)pyrazolo[5,1-b]thiazole-7-carboxamide]: less than 5.12; `COCCn1cc(-c2cn3ncc(C(=O)Nc4cc(NC(=O)C5(CN6CCCC6(C)C)CC5)cnc4C)c3s2)cn1` [Example 487, N-(5-(1-((2,2-dimethylpyrrolidin-1-yl)methyl)cyclopropane-carboxamido)-2-methylpyridin-3-yl)-2-(1-(2-methoxyethyl)-1H-pyrazol-4-yl)pyrazolo[5,1-b]thiazole-7-carboxamide]: less than 5.12. Next, `COCCn1cc(-c2cn3ncc(C(=O)Nc4cc(NC(=O)C(C)(C)CN5CCCC5(C)C)cnc4C)c3s2)cn1` [Example 488, N-(5-(3-(2,2-dimethylpyrrolidin-1-yl)-2,2-dimethyl-propanamido)-2-methylpyridin-3-yl)-2-(1-(2-methoxyethyl)-1H-pyrazol-4-yl)pyrazolo[5,1-b]thiazole-7-carboxamide]: less than 5.12; `Cc1ncc(NC(=O)CNCC(C)C)cc1NC(=O)c1cnn2cc(-c3cnn4c3CCC4)sc12` [Example 493, 2-(5,6-dihydro-4H-pyrrolo[1,2-b]pyrazol-3-yl)-N-(5-(2-(isobutylamino)acetamido)-2-methylpyridin-3-yl)pyrazolo[5,1-b]thiazole-7-carboxamide]: less than 5.12; `Cc1ncc(NC(=O)CNC2CCC2)cc1NC(=O)c1cnn2cc(-c3cnn4c3OCCC4)sc12` [Example 494, N-(5-(2-(cyclobutylamino)acetamido)-2-methylpyridin-3-yl)-2-(6,7-dihydro-5H-pyrazolo[5,1-b][1,3]oxazin-3-yl)pyrazolo[5,1-b]thiazole-7-carboxamide]: less than 5.12. Regarding `Cc1ncc(NC(=O)CNC2(C)CCC2)cc1NC(=O)c1cnn2cc(-c3cnn4c3OCCC4)sc12` [Example 495, 2-(6,7-dihydro-5H-pyrazolo[5,1-b][1,3]oxazin-3-yl)-N-(2-methyl-5-(2-((1-methylcyclobutyl)amino)acetamido)pyridin-3-yl)pyrazolo[5,1-b]thiazole-7-carboxamide], the pIC50 was less than 5.12.

In turn, `Cc1ncc(NC(=O)OC[C@@H]2CCCN2C)cc1NC(=O)c1cnn2cc(-c3cn(C)nc3C)sc12` [Example 496, (S)-(1-methylpyrrolidin-2-yl)methyl (5-(2-(1,3-dimethyl-1H-pyrazol-4-yl)pyrazolo[5,1-b]thiazole-7-carboxamido)-6-methylpyridin-3-yl)carbamate] showed a pIC50 of less than 5.12.
